# Measurements published in patent publication US20070077583A1, “Alpha enolase-directed diagnostics and therapeutics for cancer and chemotherapeutic drug resistance” (Aurelium BioPharma, Inc., priority 2005, published 2007).
# “Also recorded” adds a separate entry of the source.
# System: MCF-7 cells
# Assay: Annexin-V apoptosis assay, MCF-7
# Type: cell-based, human
# Settings: MCF-7 cells vs control siRNA
# Experimental: Apoptotic cells were measured following incubation with siRNAs. This assay was performed to determine the number of cells that were now susceptible to chemotherapeutic drugs. Cells transfected with siRNA were seeded in Lab-Tek 16-well chamber slides (Electron Microscopy Sciences, Hatfield, Pa.) at 10^4 cells/well 48 hrs post-transfection. Apoptosis was determined 16 hours later by annexin-V staining using the Annexin-V FLUOS kit (Roche, Ltd., Basel, CH) following the manufacturer's instructions. Slides were observed under a fluorescence microscope and images were taken using an Olympus digital camera and the Q-Capture software (QImaging, Burnaby, BC, CA).
substance,measurement,value
"α-enolase siRNA: siRNA duplex targeting human α-enolase mRNA; sense 5′-GGCUGUUGAGCACAUCAAUtt-3′ (SEQ ID NO: 1), antisense SEQ ID NO: 2; Ambion (antisense AUUGAUGUGCUCAACAGCC; bought from Ambion, sense has tt overhang, further chemistry not given here)",Annexin-V positive cells,Annexin-V positive cells were detected; also recorded: substantial amount of Annexin-V-positive cells
